From ChEMBL document CHEMBL1667843, “Discovery of a potent series of non-steroidal non α-trifluoromethyl carbinol glucocorticoid receptor agonists with reduced lipophilicity” (Bioorg Med Chem Lett, 2011) come the findings set out here.

The nature of assay [1]: Selectivity ratio of progesterone receptor to glucocorticoid receptor.
The target in assay [2] is T1, Glucocorticoid receptor (Homo sapiens, UniProt P04150).
T1 sequence (P04150 whole entry): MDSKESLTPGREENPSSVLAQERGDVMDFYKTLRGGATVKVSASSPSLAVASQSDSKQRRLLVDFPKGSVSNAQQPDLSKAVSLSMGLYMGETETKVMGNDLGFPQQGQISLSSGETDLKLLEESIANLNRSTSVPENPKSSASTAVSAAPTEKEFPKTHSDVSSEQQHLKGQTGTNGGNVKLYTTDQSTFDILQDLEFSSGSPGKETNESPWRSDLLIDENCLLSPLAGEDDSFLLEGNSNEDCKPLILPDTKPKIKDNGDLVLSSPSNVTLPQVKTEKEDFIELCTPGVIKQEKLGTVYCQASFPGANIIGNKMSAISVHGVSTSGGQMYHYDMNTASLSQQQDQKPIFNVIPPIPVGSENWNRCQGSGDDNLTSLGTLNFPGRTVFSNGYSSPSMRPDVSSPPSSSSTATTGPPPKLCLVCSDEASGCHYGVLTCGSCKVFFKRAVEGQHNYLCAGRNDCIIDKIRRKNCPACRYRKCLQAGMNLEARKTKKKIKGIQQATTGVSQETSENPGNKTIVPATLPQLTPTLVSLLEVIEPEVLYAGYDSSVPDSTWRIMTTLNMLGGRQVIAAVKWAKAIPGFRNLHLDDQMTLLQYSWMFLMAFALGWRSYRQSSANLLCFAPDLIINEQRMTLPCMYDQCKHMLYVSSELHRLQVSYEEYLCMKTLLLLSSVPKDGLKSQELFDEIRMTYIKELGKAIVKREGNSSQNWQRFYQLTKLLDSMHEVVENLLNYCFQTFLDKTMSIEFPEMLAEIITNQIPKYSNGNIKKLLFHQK
Kind of assay: Agonist activity at glucocorticoid receptor in human A549 cells by NF-kappaB transrepression assay. Type of assay: functional, cell-based.

Assay [3] can be described thus: Selectivity ratio of androgen receptor to glucocorticoid receptor.
The target of assay [4] is T1, Glucocorticoid receptor. Kind of assay: Displacement of fluorescent-labelled Dexamethasone from glucocorticoid receptor.
In assay [5] the target is T1, Glucocorticoid receptor. Kind of assay: Agonist activity at GR in human A549 cells transfected with luciferase gene linked to MMTV promoter assessed as luciferase transactivation activity. It is filed as functional, cell-based.

In general, IC50 refers to the concentration needed to halve the response being measured. Consider `COc1ccc(-n2ncc3c(NC[C@H](C)NS(=O)(=O)c4c(C)cc(C)cc4C)cc(C)cc32)cc1`, for which the Selectivity ratio is 10 in assay [1] and more than 100 in assay [3]. Moreover, the IC50 at Glucocorticoid receptor [2] was 12.6 nM; at Glucocorticoid receptor [4] it was 15.8 nM; on Glucocorticoid receptor [5], 50.1 nM.
In the case of `Cc1cc(C)c(S(=O)(=O)N[C@@H](C)CNc2cc(C)cc3c2cnn3-c2cccc(N3CCCC(CO)C3)c2)c(C)c1` (single isomer, unassigned; isomer 1), the results for the IC50 on Glucocorticoid receptor [2], at Glucocorticoid receptor [4] and at Glucocorticoid receptor [5] were 39.8 nM, 25.1 nM and 631 nM, respectively.
As for `Cc1cc(NC[C@H](C)NS(=O)(=O)C2CC2)c2cnn(-c3cccc(C(=O)NC(C)C)c3)c2c1`, the IC50 on Glucocorticoid receptor [2] was 2 nM; on Glucocorticoid receptor [4], 15.8 nM; at Glucocorticoid receptor [5], 12.6 nM.
Consider `Cc1cc(NC[C@H](C)NS(=O)(=O)C2CC2)c2cnn(-c3cccc(C(=O)N[C@H](C)C(N)=O)c3)c2c1`, for which the results for the IC50 on Glucocorticoid receptor [2], on Glucocorticoid receptor [4] and on Glucocorticoid receptor [5] were 3.16 nM, 31.6 nM and 126 nM, respectively.
As to `CNc1ccc(-n2ncc3c(NC[C@H](C)NS(=O)(=O)c4c(C)cc(C)cc4C)cc(C)cc32)cc1`, the IC50 is 5.01 nM on Glucocorticoid receptor [2], 20 nM at Glucocorticoid receptor [4] and 251 nM on Glucocorticoid receptor [5].
For `CCCS(=O)(=O)N[C@@H](C)CNc1cc(C)cc2c1cnn2-c1cccc(C(=O)NC(C)C)c1` the same measures were 20 nM, 12.6 nM and 79.4 nM.
With `Cc1cc(C)c(S(=O)(=O)N[C@@H](C)CNc2cc(C)cc3c2cnn3-c2ccc(S(C)(=O)=O)cc2)c(C)c1`, the figures for the Selectivity ratio in assay [1] and in assay [3] were 10 and more than 100, respectively. In addition, the IC50 was 5.01 nM at Glucocorticoid receptor [2], 31.6 nM on Glucocorticoid receptor [4] and 12.6 nM on Glucocorticoid receptor [5].
As for `Cc1cc(C)c(S(=O)(=O)N[C@@H](C)CNc2cc(C)cc3c2cnn3-c2ccc(N[C@H](C)C(N)=O)cc2)c(C)c1`, the results for the IC50 at Glucocorticoid receptor [2], at Glucocorticoid receptor [4] and on Glucocorticoid receptor [5] were 7.94 nM, 25.1 nM and 158 nM, respectively.
For `CCN(C[C@](O)(CNc1cccc2c1cnn2-c1ccc(F)cc1)C(F)(F)F)C(=O)c1c(Cl)cccc1Cl` the same measures were 0.0794 nM, 15.8 nM and 0.316 nM.
Taken in the same sequence, the figures for `Cc1cc(C)c(S(=O)(=O)N[C@@H](C)CNc2cc(C)cc3c2cnn3-c2cccc(N3CCCC(CO)C3)c2)c(C)c1` (stereo in doubt; 14l) were 20 nM, 25.1 nM and 251 nM.
For `COc1cccc(-n2ncc3c(NC[C@H](C)NS(=O)(=O)c4c(C)cc(C)cc4C)cc(C)cc32)c1`, the Selectivity ratio was 10 in assay [1] and more than 100 in assay [3]. Moreover, the IC50 was 50.1 nM on Glucocorticoid receptor [2] and 200 nM on Glucocorticoid receptor [5].
Consider `Cc1cc(C)c(S(=O)(=O)N[C@@H](C)CNc2cc(C)cc3c2cnn3-c2ccc(N[C@@H](C)C(N)=O)cc2)c(C)c1`, for which the IC50 on Glucocorticoid receptor [2] was 7.94 nM; at Glucocorticoid receptor [4], 31.6 nM; at Glucocorticoid receptor [5], 15.8 nM.
As for `Cc1cc(C)c(S(=O)(=O)N[C@@H](C)CNc2cc(C)cc3c2cnn3-c2cccc(N[C@H](C)C(N)=O)c2)c(C)c1`, the IC50 at Glucocorticoid receptor [2] is 0.2 nM; on Glucocorticoid receptor [4] it was 15.8 nM; at Glucocorticoid receptor [5], 2 nM.
`Cc1cc(NC[C@H](C)NS(=O)(=O)C2CC2)c2cnn(-c3cccc(C(=O)N[C@@H](C)C(N)=O)c3)c2c1`: the IC50 is 5.01 nM on Glucocorticoid receptor [2], 39.8 nM on Glucocorticoid receptor [4] and 200 nM on Glucocorticoid receptor [5].
Taken in the same sequence, the figures for `Cc1cc(C)c(S(=O)(=O)N[C@@H](C)CNc2cc(C)cc3c2cnn3-c2cccc(NCC(N)=O)c2)c(C)c1` were 0.251 nM, 12.6 nM and 2.51 nM.
For the compound `Cc1cc(C)c(S(=O)(=O)N[C@@H](C)CNc2cc(C)cc3c2cnn3-c2ccc(F)cc2)c(C)c1`, the Selectivity ratio is 10 in assay [1] and more than 100 in assay [3]. Besides, the IC50 on Glucocorticoid receptor [2] is 1.26 nM; on Glucocorticoid receptor [4], 15.8 nM; on Glucocorticoid receptor [5], 3.98 nM.
Turning to `Cc1cc(NC[C@H](C)NS(C)(=O)=O)c2cnn(-c3cccc(C(=O)NC(C)C)c3)c2c1`, the IC50 at Glucocorticoid receptor [2] was 200 nM; on Glucocorticoid receptor [4], 126 nM; at Glucocorticoid receptor [5], 2000 nM.
For `Cc1cc(NC[C@H](C)NS(=O)(=O)C2CC2)c2cnn(-c3cccc(C(=O)N4CCC[C@H]4C(N)=O)c3)c2c1`, the IC50 at Glucocorticoid receptor [2] was 794 nM; on Glucocorticoid receptor [4] it was 158 nM; on Glucocorticoid receptor [5], 3980 nM.
Taken in the same sequence, the figures for `Cc1cc(NC[C@H](C)NS(=O)(=O)C2CC2)c2cnn(-c3cccc(C(=O)N4CCCC(CO)C4)c3)c2c1` (some centres not stated) were 251 nM, 126 nM and more than 6310 nM.
Take `Cc1cc(C)c(S(=O)(=O)N[C@@H](C)CNc2cc(C)cc3c2cnn3-c2cccc(NC3CC3)c2)c(C)c1`: the figures for the IC50 on Glucocorticoid receptor [2], on Glucocorticoid receptor [4] and on Glucocorticoid receptor [5] were 0.316 nM, 7.94 nM and 1.26 nM, respectively.
Take `Cc1cc(C)c(S(=O)(=O)N[C@@H](C)CNc2cc(C)cc3c2cnn3-c2cccc(N[C@@H](C)C(N)=O)c2)c(C)c1`: the IC50 is 0.501 nM on Glucocorticoid receptor [2], 5.01 nM on Glucocorticoid receptor [4] and 1.58 nM on Glucocorticoid receptor [5].
For `Cc1cc(C)c(S(=O)(=O)N[C@@H](C)CNc2cc(C)cc3c2cnn3-c2ccc(NC3CC3)cc2)c(C)c1`, the 50% inhibitory concentration (IC50) was 1.26 nM on Glucocorticoid receptor [2], 7.94 nM at Glucocorticoid receptor [4] and 7.94 nM on Glucocorticoid receptor [5].
Take `Cc1cc(C)c(S(=O)(=O)NC[C@@H](C)Nc2cc(C)cc3c2cnn3-c2ccc(F)cc2)c(C)c1`: the results for the IC50 at Glucocorticoid receptor [2], at Glucocorticoid receptor [4] and at Glucocorticoid receptor [5] were 6.31 nM, 12.6 nM and 50.1 nM, respectively.
`Cc1cc(C)c(S(=O)(=O)N[C@@H](C)CNc2cc(C)cc3c2cnn3-c2cccc(N3CCCC(CO)C3)c2)c(C)c1` (single isomer, unassigned; isomer 2): the IC50 at Glucocorticoid receptor [2] is 39.8 nM; at Glucocorticoid receptor [4] it was 15.8 nM; on Glucocorticoid receptor [5] it was 316 nM.
In the case of `Cc1cc(C)c(S(=O)(=O)N[C@@H](C)CNc2cc(C)cc3c2cnn3-c2ccc(C#N)cc2)c(C)c1`, the values for the Selectivity ratio in assay [1] and in assay [3] were 10 and more than 100, respectively. The results for the IC50 on Glucocorticoid receptor [2], at Glucocorticoid receptor [4] and at Glucocorticoid receptor [5] were 2 nM, 15.8 nM and 5.01 nM, respectively.
For `Cc1cc(C)c(S(=O)(=O)N[C@@H](C)CNc2cc(C)cc3c2cnn3-c2cccc(F)c2)c(C)c1`, the Selectivity ratio in assay [1] was 10; in assay [3], more than 100. Also, the IC50 at Glucocorticoid receptor [2] was 7.94 nM; at Glucocorticoid receptor [4], 15.8 nM; on Glucocorticoid receptor [5] it was 25.1 nM.
As for `Cc1cc(C)c(S(=O)(=O)N[C@@H](C)CNc2cc(C)cc3c2cnn3-c2cccc(NC(C)C)c2)c(C)c1`, the concentration for half-maximal inhibition (IC50) was 0.126 nM on Glucocorticoid receptor [2], 6.31 nM on Glucocorticoid receptor [4] and 0.501 nM at Glucocorticoid receptor [5].
With `Cc1cc(C)c(S(=O)(=O)N[C@@H](C)CNc2cc(C)cc3c2cnn3-c2ccc(NC(C)C)cc2)c(C)c1`, the IC50 was 2 nM on Glucocorticoid receptor [2], 12.6 nM on Glucocorticoid receptor [4] and 10 nM on Glucocorticoid receptor [5].
As to `Cc1cc(NC[C@H](C)NS(=O)(=O)C2CC2)c2cnn(-c3cccc(C(=O)NCC(N)=O)c3)c2c1`, the IC50 at Glucocorticoid receptor [2] was 5.01 nM; at Glucocorticoid receptor [4], 7.94 nM; at Glucocorticoid receptor [5], 200 nM.
As to `Cc1cc(NC[C@H](C)NS(=O)(=O)C(C)C)c2cnn(-c3cccc(C(=O)NC(C)C)c3)c2c1`, the IC50 is 7.94 nM on Glucocorticoid receptor [2], 39.8 nM at Glucocorticoid receptor [4] and 50.1 nM on Glucocorticoid receptor [5].
Turning to `Cc1cc(C)c(S(=O)(=O)N[C@@H](C)CNc2cc(C)cc3c2cnn3-c2ccc(NCC(N)=O)cc2)c(C)c1`, the figures for the IC50 on Glucocorticoid receptor [2], on Glucocorticoid receptor [4] and on Glucocorticoid receptor [5] were 3.16 nM, 15.8 nM and 63.1 nM, respectively.
Taken in the same sequence, the figures for `Cc1cc(NC[C@H](C)NS(=O)(=O)C2CC2)c2cnn(-c3cccc(C(=O)N(C)[C@H](C)C(N)=O)c3)c2c1` were 2.51 nM, 31.6 nM and 50.1 nM.
